# Test results reported in patent publication US8003621B2, “Drug carriers” (Nitto Denko Corporation, priority 2007, dated 2011).
# Tested on: red blood cell
# Assay: Hemolytic assay
# Design: species or system nude mice
# Conditions: 0.2% TritonX-100, 100 μL/well with 10 μL of blood sample; 60 minutes at 37° C.
# Description: Blood samples of nude mice were collected in heparinize-tubes and were centrifuged at 700×g for 10 minutes. The supernatant was discarded, and the red blood cell pellet was washed three times with cold PBS (pH 7.4) and was re-suspended in the same buffer. Solutions of the polymers and the siEGFP of different concentrations were prepared in PBS buffers and were added to the round-bottom plate at 100 μL/well. Blood sample (10 μL) was added to each well, and the plate was incubated for 60 minutes at 37° C. The release of hemoglobin was determined by photospectrometric analysis after centrifugation (700 g for 10 min). The supernatant (100 μL) from each well was transferred into flat-bottom plate. Intensity of […] at 540 nm was measured by a plate reader.
substance,measurement,value
TritonX-100,hemolysis (control value),100%
